# Assay results published in patent US20190314812A1, “SKIN SAMPLE CULTURE AND MEMBRANE TEST DEVICE” (The University of Dundee, priority 2016, published 2019).
# Test system: NRF2
# Experiment: NQO1 mRNA levels in skin cultured in the device and treated with an NRF2 activator
# Assay type: cell-based
# Settings: tissue treated on Day 0 versus Day 4 of culture in the 384-well device
# Experimental: FIG. 8A is a perspective view of another embodiment of the present invention 341. […] The base has holes (not shown) which receive fixings 349. […] FIG. 8B is a schematic diagram which summarises an experiment in which skin cultured in the apparatus 341 was treated with a small molecule NRF2 activator (TBE-31) in order to evaluate the intracellular viability of the tissue. NRF2 transcriptionally regulates multiple genes that play both direct and indirect roles in activating intracellular anti-oxidative pathways.
structure (smiles),measurement,value
C#C[C@]12C=C(C#N)C(=O)C=C1[C@@]1(C)C=C(C#N)C(=O)C(C)(C)[C@@H]1CC2 [TBE-31],NRF2 response (NQO1 mRNA levels) in cultured skin,statistically the same
